Test results from article PMC9738632 (Molecules, 2022).
Values after ≈ are worked out from the molar mass of the structure shown. Where two headings read alike, the source gives them in different places.

Key:
[1] = test system: DENV-1:VN/2017/D7709; assay: Plaque reduction neutralization test (PRNT), DENV-1; type: cell-based, Dengue virus; details: DENV-1, BHK-21 cells
Excerpt: (§1) The dengue viruses used in this study were DENV-1:VN/2017/D7709, DENV-2: 00St22A, DENV-3: SMLC50, DENV-4: SLMC318. The virus strains were supplied by the Vietnam National Institute of Hygiene and Epidemiology. The four above serotypes of the Dengue virus were propagated in BHK-21 cell lines (provided by Nagasaki University, Japan) in Eagle’s Minimum Essential Medium (EMEM; Gibco Thermo Fischer Scientific, Waltham, MA, USA) with 2% Fetal Bovine Serum (FBS; Sigma Aldrich, St. Louis, MO, USA) at 37 °C under 5% CO2 atmosphere for 5–7 days. The BHK-21 cells were cultured using 10% FBS EMEM medium.
(§2) EMEM (1 mL) containing FBS (2%) was added into each of 24-well plates (with a concentration of […] –1.0 × 10^4 cells/well). The well plates were shaken to induce the formation of identical cell layers. Afterwards, the wells were incubated at 37 °C under 5% CO2 atmosphere overnight until the cell concentration reached at 70–90%. In case this concentration was not yet reached, the incubation was allowed to continue for a further 1 to 2 days.
(§3) The compounds 4–8 and 23 were totally dissolved in EMEM with a concentration of 500 μg/mL, which was serially diluted with step 2 with EMEM containing 2% FBS; the solutions of compounds were kept at 2–8 °C. The viruses were used at the dose of 2.5 × 10^3 PFU/mL in EMEM containing 2% FBS. The virus (100 μL) was added to all the diluted samples. The virus-compounds mixtures were incubated at 37 °C under 5% CO2 atmosphere for 60 min; afterwards, the medium in all wells of the plates was removed. The virus-compounds mixture (50 μL) was added into the wells, according to the designed experimental test concentration/dilution.
(§4) The viral medium was used as the negative control. EMEM (2 mL) containing methyl cellulose (1%) was added and re-incubated at 37 °C under 5% CO2 atmosphere for 4–6 days. The typical DENV-1 and DENV-4-induced CPE appeared after 4 days of incubation, while the durations for DENV-2 and DENV-3 were 5 and 6 days, respectively. These times of incubation allowed the formation of the plaques to be visually observable and countable. The plaques can be observed under a microscope or by eyes. The cells were fixed with formalin (3.7%) for 1 h at room temperature, washed with water, and stained with crystal violet (0.25%) for 1 h at room temperature. Finally, the plaques were counted.

[2] = test system: E. coli; set-up: method as in doi:10.3390/M1078; details: cited from earlier work
[3] = Cytotoxicity assay (MTT) in MDCK cells; type: cell-based, Canine; details: dog, read-out: CC50 (50% cytotoxic concentration)
Procedure: (§5) Initially, maximum non-toxic concentrations were determined for compounds 1–22 to exclude their non-specific antiviral activity. The in vitro cytotoxicity of the tested compounds (CC50) was studied in the normal Madin-Darby Canine Kidney cell line (MDCK) by the MTT ((3-(4,5-dimethylthiazol-2-yl)-2,5-diphenyltetrazolium bromide) test. The highest concentration tested was […]. The cytotoxicity of oseltamivir carboxylate and rimantadine was also evaluated as these have been used as reference drugs in antiviral tests. Compounds at concentration that kills no more than 50% of cells (CC50) were used for further investigation of antiviral activity.
(§6) The MDCK cells were seeded onto 96-well culture plates (10^4 cells per well) and incubated at 36 °C in 5% CO2 until continuous monolayer formation. To assess the toxicity of the compounds, a series of their 3-fold dilutions, at concentrations of 300 to 3.7 μg/mL in Eagle’s Minimal Essential Medium (MEM), were prepared. The dilutions were added to the wells of the plates. The cells were incubated for 72 h at 36 °C in a CO2 incubator under 5% CO2. Further, a microtetrazolium (MTT) assay was performed on the 96-well plates. The cells were washed 2 times with saline (0.9% NaCl), and 100 μL/well of MTT solution [3-(4,5-dimethylthiazol-2-yl)-2,5-diphenyltetrazolium bromide] at a concentration of […] in MEM was added. The plates were incubated for 1 h at 36 °C, the liquid was removed, and dimethylsulfoxide (DMSO) (0.1 mL per well) was added. The optical density (OD) of the cells was measured on a Thermo Multiskan FC spectrophotometer (Thermo Fisher Scientific, Waltham, MA, USA) at a wavelength of 540 nm. Based on the obtained data, the CC50, the concentration of the compound that destroys 50% of the cells in the culture, was calculated for each specimen.

[4] = test system: MDCK cells; assay: Cytotoxicity assay (MTT) in MDCK cells; type: cell-based, Canine; details: 72 h, read-out: CC50 (50% cytotoxic concentration)
Procedure: as §5, §6

[5] = test system: DENV-3: SMLC50; assay: Plaque reduction neutralization test (PRNT), DENV-3; type: cell-based, Dengue virus; details: DENV-3, BHK-21 cells
Excerpt: as §1, §2, §3, §4

[6] = Cytotoxic assay (MTT) against BHK-21 cells; type: cell-based; details: hamster, read-out: CC50 (50% cytotoxic concentration)
Procedure: The cytotoxic evaluation of the extracts was carried out against the BHK-21 cells. Under cultural conditions of EMEM with FBS (10%), the assaying cells were grown in 96-well bottom-transparent plates at a density of 6 × 10^4 cells/mL per well. The compounds that had been dissolved in dimethyl sulfoxide (DMSO) with six different concentrations (500, 250, 125, 62.5, 31.25, 15.625 μg/mL) were added into each well; each concentration was used in triplicate. After incubation at 37 °C under 5% CO2 atmosphere for 48 h, MTT (0.5 mg/mL) was added into each well; afterwards, 4 h incubation was carried out. The liquid in the wells was removed, and DMSO ([…]) was added to each well. The optical absorbance was recorded on a microplate reader at λ = 570 nm (Genious Tecan, Grödig, […]). The optical density in the wells was plotted against the logarithm of compound concentration, and 50% cytotoxic concentration (CC50), the compound concentration decreasing the optical density twice comparing to control wells, was calculated using the appropriate software (Table Curve 2Dv4.USA).

[7] = test system: DENV-2: 00St22A; assay: Plaque reduction neutralization test (PRNT), DENV-2; type: cell-based, Dengue virus; details: DENV-2, BHK-21 cells
Excerpt: as §1, §2, §3, §4

[8] = test system: influenza virus A/Puerto Rico/8/34 (H1N1); assay: organism not typed; type: cell-based; details: read-out: IC50 (50% inhibitory concentration)
[9] = test system: S. aureus; set-up: method as in doi:10.3390/M1078; details: cited from earlier work
[10] = test system: P. aeruginosa; set-up: method as in doi:10.3390/M1078; details: cited from earlier work
[11] = test system: DENV-4: SLMC318; assay: Plaque reduction neutralization test (PRNT), DENV-4; type: cell-based, Dengue virus; details: DENV-4, BHK-21 cells
Excerpt: as §1, §2, §3, §4

For CC1(C)CC[C@]2(C(=O)NCCNCCN)CC[C@]3(C)C(=CCC4[C@@]5(C)CCC(=O)C(C)(C)C5CC[C@]43C)C2C1 (stereo partly shown) [Compound 5], the “PRNT50 DENV-1 (concentration that reduces plaque number by 50%)” value [1] is given as “inactive”, the IC50 ([1]; Dengue virus, DENV1, read-out: PRNT50 DENV-1 (concentration that reduces plaque number by 50%)) is given as 220 ± 14 µM and the “MIC against E. coli” value [2] is given as 25 µM (≈ 13.5 µg/mL). For the same compound, the CC50 at 72 h [3] was 48 µM, the CC50 [4] was 50 ± 4 µM and the “PRNT50 DENV-3 (concentration that reduces plaque number by 50%)” value [5] was “inactive”. For the same compound, the IC50 ([5]; Dengue virus, DENV3, read-out: PRNT50 DENV-3 (concentration that reduces plaque number by 50%)) was 452 ± 26 µM, the CC50 at 48 h [6] was over 463 µM and the “PRNT50 DENV-2 (concentration that reduces plaque number by 50%)” value [7] was “inactive”. It also gave an IC50 ([7]; Dengue virus, DENV2, read-out: PRNT50 DENV-2 (concentration that reduces plaque number by 50%)) of 372 ± 15 µM, an IC50 ([8]; MDCK, 72 h) of 20 to 21 µM and an IC50 [8] of over 20 µM. For the same compound, the “MIC against S. aureus” value [9] was 12.5 µM (≈ 6.75 µg/mL), the “MIC against P. aeruginosa” value [10] was 50 µM (≈ 27 µg/mL) and the “PRNT50 DENV-4 (concentration that reduces plaque number by 50%)” value [11] was “inactive”. It also gave an IC50 ([11]; Dengue virus, DENV4, read-out: PRNT50 DENV-4 (concentration that reduces plaque number by 50%)) of 433 ± 31 µM.
